Experimental data from ChEMBL document CHEMBL1938384, “Lysine demethylases inhibitors” (J Med Chem, 2011).
One block for each compound: values may come before it. Activity calls are given as the source filed them. The calls are words filed in the database; no cut-off is given here.

How the values were obtained:
[1] = target: T1, Amine oxidase [flavin-containing] A (Homo sapiens, UniProt P21397)
T1 sequence (P21397 whole entry): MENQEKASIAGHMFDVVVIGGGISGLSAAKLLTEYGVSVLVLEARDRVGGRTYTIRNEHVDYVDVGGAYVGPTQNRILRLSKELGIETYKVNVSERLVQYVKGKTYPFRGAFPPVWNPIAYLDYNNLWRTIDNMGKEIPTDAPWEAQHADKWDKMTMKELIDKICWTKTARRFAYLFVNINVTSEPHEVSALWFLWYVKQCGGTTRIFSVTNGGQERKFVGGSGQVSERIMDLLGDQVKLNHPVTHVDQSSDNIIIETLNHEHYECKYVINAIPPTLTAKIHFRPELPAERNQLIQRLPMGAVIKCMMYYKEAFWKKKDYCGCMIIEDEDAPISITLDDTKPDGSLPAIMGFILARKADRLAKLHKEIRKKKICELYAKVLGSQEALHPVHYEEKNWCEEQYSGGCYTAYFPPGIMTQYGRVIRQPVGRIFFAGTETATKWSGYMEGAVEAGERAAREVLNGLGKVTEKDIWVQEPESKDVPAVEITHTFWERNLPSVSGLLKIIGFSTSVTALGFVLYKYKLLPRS

[2] = target: T2, Amine oxidase [flavin-containing] B (Homo sapiens, UniProt P27338)
T2 sequence (P27338 whole entry): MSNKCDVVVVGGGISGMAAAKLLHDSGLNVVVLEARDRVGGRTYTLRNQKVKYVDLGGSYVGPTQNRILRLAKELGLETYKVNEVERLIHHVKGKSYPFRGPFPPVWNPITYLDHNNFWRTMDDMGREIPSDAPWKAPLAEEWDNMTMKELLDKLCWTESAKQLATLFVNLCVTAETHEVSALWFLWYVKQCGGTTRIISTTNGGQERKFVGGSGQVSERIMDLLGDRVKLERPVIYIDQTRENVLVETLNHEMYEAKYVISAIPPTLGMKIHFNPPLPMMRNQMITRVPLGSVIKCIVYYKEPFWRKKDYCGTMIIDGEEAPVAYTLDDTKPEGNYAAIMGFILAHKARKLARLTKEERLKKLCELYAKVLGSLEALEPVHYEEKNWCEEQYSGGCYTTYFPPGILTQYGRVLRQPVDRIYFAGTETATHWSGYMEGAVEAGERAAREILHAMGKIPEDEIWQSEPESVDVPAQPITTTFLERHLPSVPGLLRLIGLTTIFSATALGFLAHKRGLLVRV

[3] = target: T3, Lysine-specific demethylase 2A (Homo sapiens, UniProt Q9Y2K7)
T3 sequence (Q9Y2K7 whole entry): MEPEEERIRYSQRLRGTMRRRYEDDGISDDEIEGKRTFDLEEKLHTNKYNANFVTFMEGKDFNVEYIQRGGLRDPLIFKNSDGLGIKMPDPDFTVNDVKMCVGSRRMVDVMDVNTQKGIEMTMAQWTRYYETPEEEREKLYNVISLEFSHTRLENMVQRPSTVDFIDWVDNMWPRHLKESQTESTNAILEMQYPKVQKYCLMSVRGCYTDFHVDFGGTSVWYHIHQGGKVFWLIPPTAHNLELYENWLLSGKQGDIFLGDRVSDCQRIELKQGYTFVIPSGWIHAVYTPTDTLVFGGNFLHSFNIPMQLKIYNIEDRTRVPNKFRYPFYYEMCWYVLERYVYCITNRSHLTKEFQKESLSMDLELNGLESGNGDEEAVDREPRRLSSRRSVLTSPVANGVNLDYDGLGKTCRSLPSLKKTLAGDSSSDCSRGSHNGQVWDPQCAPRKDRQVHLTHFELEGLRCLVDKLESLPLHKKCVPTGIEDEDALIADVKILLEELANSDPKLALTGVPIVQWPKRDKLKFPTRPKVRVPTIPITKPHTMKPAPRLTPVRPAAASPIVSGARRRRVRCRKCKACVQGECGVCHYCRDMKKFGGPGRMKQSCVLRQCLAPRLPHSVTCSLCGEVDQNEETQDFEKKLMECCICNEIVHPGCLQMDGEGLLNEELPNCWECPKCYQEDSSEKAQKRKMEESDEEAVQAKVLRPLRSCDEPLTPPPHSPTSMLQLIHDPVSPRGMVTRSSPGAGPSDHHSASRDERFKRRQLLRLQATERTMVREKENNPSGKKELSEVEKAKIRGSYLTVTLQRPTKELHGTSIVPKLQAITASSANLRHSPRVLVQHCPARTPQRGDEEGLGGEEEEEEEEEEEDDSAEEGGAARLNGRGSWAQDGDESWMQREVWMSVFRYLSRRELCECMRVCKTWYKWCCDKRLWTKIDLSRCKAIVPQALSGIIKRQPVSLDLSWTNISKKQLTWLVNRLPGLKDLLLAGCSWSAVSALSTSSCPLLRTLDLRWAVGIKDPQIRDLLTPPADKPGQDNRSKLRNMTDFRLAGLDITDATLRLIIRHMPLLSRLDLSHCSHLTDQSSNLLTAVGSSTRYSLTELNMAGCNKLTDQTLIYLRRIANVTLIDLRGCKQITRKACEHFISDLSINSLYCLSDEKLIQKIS

[4] = target: Lysine-specific demethylase 6B (Homo sapiens, UniProt O15054); experiment: Inhibition of KDM6B
[5] = target: Histone lysine demethylase PHF8 (Homo sapiens, UniProt Q9UPP1); experiment: Inhibition of KDM7B
Prolyl hydroxylase EGLN3 = Prolyl hydroxylase EGLN3 (Homo sapiens, UniProt Q9H6Z9); experiment: Inhibition of PHD3
[6] = target: T4, Lysine-specific demethylase 4A (Homo sapiens, UniProt O75164)
T4 sequence (O75164 whole entry): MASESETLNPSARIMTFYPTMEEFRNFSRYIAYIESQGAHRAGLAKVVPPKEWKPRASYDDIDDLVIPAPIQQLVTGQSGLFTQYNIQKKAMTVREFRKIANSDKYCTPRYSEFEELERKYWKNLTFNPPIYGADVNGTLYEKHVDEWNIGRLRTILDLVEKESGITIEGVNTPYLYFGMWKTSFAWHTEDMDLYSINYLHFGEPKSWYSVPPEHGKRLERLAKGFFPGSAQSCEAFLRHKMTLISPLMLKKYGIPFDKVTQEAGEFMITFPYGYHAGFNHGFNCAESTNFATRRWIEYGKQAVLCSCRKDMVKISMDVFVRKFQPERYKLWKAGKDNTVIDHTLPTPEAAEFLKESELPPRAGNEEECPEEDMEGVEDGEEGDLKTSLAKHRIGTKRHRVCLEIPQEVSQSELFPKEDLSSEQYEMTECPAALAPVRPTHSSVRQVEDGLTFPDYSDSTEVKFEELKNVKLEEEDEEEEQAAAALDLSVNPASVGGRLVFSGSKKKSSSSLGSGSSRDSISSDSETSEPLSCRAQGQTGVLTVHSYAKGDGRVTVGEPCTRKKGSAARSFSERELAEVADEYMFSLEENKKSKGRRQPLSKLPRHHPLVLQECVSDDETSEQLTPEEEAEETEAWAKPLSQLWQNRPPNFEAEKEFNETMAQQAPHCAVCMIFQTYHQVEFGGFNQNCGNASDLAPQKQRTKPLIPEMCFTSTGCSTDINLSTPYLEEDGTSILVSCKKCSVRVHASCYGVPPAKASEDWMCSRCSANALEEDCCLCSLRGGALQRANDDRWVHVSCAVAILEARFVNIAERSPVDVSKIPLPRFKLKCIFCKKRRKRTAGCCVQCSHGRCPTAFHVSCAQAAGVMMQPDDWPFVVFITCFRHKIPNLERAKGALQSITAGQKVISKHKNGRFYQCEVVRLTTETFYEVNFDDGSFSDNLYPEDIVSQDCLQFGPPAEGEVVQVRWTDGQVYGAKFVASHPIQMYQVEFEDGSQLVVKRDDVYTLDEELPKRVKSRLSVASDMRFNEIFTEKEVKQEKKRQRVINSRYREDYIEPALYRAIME

[7] = target: T5, Lysine-specific demethylase 4C (Homo sapiens, UniProt Q9H3R0)
T5 sequence (Q9H3R0 whole entry): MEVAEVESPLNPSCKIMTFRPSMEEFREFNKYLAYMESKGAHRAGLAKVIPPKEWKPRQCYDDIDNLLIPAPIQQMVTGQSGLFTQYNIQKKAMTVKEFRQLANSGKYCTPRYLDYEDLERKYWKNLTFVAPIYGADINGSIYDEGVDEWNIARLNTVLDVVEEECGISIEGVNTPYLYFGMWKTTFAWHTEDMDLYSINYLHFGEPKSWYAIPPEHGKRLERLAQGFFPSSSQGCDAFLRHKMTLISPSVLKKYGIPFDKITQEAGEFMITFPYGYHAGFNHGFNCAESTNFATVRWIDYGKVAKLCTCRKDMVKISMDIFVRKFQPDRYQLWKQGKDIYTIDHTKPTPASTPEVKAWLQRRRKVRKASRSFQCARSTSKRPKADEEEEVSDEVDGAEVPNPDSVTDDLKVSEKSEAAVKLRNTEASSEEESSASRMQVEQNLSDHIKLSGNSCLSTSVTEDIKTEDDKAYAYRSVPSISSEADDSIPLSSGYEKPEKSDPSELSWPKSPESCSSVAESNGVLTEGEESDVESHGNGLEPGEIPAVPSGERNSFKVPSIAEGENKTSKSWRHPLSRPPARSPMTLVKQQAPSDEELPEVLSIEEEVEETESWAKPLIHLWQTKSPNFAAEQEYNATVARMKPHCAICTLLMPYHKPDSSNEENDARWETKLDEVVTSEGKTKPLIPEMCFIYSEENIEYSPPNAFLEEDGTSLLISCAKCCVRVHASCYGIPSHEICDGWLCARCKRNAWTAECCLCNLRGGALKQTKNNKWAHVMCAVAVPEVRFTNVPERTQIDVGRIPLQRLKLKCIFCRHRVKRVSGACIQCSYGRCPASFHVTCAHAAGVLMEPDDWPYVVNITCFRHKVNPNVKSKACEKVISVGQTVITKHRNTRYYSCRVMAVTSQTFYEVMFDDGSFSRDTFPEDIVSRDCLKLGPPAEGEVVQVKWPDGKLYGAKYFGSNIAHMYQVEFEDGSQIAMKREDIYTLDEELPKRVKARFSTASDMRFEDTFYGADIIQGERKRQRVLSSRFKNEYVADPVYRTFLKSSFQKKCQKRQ

Egl nine homolog 1 [8] = target: T6, Egl nine homolog 1 (Homo sapiens, UniProt Q9GZT9)
Target sequence in this assay (Q9GZT9 whole entry): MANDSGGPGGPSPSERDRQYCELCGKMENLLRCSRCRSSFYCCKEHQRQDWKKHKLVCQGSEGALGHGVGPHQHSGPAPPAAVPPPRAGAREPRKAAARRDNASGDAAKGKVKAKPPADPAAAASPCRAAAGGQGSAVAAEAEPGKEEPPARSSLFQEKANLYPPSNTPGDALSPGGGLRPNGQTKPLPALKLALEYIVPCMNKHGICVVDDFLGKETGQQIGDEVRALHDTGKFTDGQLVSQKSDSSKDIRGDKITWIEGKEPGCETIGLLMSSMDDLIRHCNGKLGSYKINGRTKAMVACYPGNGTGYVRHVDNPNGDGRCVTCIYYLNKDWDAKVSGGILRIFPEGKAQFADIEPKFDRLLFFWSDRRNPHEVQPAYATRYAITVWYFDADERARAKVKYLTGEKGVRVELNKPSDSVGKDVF

[9] = target: Hypoxia-inducible factor 1-alpha inhibitor (Homo sapiens, UniProt Q9NWT6)
Prolyl hydroxylase EGLN2 = Prolyl hydroxylase EGLN2 (Homo sapiens, UniProt Q96KS0)
Egl nine homolog 1 [10] = target: T6, Egl nine homolog 1; remark: listed apart in the source
Target sequence in this assay (Q9GZT9 2-426 limits assumed): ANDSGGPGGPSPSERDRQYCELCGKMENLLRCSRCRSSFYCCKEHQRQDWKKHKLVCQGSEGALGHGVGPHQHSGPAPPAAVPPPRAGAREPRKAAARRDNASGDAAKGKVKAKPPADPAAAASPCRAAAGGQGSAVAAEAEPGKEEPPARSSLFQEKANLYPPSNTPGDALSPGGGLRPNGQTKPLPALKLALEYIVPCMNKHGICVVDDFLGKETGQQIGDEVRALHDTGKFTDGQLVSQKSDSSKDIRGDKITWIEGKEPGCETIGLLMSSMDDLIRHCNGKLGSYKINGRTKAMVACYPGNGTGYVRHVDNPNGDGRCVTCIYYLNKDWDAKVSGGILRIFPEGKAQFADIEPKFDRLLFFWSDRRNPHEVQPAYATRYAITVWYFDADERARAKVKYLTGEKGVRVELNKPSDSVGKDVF

Chain of Hypoxia-inducible factor 1-alpha inhibitor (Q9NWT6 whole entry): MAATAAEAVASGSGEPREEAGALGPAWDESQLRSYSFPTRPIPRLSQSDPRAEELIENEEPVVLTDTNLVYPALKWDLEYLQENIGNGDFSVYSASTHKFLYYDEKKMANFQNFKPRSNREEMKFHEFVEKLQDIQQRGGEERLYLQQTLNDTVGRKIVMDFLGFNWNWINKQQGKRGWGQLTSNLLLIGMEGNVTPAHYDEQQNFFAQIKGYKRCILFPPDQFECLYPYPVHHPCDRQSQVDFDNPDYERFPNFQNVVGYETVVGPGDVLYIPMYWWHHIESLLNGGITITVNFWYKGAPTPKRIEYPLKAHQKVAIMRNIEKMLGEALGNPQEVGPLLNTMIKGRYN
Chain of Prolyl hydroxylase EGLN2 (Q96KS0 whole entry): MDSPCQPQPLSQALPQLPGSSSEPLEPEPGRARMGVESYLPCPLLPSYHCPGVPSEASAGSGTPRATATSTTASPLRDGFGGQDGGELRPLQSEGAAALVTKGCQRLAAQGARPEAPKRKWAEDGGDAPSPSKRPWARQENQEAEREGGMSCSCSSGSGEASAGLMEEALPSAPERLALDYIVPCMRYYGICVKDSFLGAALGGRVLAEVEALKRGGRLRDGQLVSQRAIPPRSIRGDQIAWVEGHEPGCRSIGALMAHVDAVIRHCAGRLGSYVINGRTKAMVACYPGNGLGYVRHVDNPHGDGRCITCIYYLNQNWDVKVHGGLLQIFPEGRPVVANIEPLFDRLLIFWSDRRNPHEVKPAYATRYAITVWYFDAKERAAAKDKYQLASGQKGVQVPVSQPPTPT
Chain of Lysine-specific demethylase 6B (O15054 whole entry): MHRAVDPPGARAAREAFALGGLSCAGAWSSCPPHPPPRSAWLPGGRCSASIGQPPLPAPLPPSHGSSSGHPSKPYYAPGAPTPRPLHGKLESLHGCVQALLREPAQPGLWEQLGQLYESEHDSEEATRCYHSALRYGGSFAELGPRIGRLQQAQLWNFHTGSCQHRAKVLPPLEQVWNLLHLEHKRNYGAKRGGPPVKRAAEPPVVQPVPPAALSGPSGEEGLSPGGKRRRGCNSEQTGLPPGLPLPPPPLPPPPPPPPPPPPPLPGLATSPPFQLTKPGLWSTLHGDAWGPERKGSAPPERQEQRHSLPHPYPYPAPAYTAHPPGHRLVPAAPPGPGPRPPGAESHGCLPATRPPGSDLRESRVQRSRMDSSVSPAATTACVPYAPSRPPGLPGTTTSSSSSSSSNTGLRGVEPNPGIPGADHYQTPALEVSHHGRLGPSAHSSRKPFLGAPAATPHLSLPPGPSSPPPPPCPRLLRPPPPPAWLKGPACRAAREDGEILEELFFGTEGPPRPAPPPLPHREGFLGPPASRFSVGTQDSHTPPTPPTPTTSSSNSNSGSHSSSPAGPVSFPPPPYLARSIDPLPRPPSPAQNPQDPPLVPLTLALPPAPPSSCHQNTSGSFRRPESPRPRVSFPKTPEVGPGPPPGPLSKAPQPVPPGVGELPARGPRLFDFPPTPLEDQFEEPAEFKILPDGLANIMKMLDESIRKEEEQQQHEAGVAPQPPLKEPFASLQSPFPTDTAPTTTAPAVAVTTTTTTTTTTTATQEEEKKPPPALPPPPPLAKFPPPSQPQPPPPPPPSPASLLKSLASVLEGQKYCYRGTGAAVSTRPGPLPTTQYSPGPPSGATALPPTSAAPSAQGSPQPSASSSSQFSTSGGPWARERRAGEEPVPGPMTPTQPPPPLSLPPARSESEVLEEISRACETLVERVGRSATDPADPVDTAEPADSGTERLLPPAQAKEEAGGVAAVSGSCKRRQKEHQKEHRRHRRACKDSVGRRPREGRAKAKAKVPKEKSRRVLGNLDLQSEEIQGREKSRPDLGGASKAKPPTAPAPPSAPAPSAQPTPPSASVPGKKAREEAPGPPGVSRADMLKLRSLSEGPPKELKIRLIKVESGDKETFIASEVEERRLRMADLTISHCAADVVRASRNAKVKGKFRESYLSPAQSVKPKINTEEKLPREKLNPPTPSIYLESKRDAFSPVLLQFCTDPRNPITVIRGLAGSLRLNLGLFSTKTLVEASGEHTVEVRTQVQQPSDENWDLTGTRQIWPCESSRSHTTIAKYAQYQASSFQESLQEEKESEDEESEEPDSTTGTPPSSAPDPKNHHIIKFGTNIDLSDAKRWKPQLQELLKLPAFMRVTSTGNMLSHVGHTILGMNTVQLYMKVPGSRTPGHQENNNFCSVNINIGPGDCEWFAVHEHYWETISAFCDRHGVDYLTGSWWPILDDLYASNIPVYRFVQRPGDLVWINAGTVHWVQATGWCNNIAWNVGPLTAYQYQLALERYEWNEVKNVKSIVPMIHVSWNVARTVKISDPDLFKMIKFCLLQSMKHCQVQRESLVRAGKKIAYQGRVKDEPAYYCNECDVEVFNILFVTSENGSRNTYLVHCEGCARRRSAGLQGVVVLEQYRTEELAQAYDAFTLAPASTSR
Chain of Histone lysine demethylase PHF8 (Q9UPP1 whole entry): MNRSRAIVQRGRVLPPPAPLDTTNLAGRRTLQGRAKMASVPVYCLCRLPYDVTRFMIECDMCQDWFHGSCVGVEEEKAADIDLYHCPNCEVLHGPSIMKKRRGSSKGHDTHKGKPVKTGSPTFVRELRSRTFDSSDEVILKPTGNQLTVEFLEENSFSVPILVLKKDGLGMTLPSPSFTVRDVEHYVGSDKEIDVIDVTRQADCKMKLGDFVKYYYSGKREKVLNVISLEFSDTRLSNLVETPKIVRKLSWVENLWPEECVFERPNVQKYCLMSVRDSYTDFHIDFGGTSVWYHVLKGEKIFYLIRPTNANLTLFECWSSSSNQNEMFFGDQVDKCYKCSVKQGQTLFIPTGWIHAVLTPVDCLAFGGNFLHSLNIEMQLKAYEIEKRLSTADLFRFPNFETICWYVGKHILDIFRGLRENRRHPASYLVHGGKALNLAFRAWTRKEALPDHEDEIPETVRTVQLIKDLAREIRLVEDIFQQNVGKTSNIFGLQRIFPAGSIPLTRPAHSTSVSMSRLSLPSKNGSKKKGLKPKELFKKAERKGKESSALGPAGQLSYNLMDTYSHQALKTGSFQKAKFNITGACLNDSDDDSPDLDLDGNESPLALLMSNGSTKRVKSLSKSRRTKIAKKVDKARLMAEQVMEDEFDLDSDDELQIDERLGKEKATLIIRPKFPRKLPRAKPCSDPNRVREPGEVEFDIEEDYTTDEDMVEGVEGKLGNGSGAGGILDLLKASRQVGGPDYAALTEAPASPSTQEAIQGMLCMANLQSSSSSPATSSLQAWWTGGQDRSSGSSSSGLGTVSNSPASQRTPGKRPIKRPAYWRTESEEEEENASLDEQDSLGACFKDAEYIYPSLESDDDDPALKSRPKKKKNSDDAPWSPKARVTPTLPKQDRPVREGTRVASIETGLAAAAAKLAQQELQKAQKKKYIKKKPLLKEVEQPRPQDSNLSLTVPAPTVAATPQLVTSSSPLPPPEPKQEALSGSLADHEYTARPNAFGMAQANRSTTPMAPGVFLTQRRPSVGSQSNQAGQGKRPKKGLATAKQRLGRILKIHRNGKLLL
Chain of Prolyl hydroxylase EGLN3 (Q9H6Z9 whole entry): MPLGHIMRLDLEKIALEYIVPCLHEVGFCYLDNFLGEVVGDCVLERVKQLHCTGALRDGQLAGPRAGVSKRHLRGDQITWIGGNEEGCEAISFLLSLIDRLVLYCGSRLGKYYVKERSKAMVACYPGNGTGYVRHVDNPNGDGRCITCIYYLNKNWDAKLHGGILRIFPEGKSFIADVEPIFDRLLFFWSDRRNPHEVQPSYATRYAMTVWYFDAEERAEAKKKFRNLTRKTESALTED

IC50 [4]: 43 µM
IC50 [5]: 10 µM
IC50 (Prolyl hydroxylase EGLN3): 31 µM
IC50 [6]: 4.3 µM
IC50 [7]: 3.4 µM
IC50 (Egl nine homolog 1 [8]): 83 µM
IC50 [9]: 22 µM
IC50 (Prolyl hydroxylase EGLN2): 54 µM
SMILES: O=C(O)/C=C/C(=O)N(O)CCCCNCc1ccc(COC(=O)Nc2cccc3ccccc23)cc1

IC50 (Egl nine homolog 1 [8]): > 400 µM
SMILES: O=C(O)c1ccnc(C(=O)O)c1Nc1ccccc1F

inhibition (Egl nine homolog 1 [10]): inactive
SMILES: O=C(O)C(=O)N[C@H](Cc1ccc(OS(=O)(=O)c2ccc(Br)cc2)cc1)C(=O)O

IC50 (Egl nine homolog 1 [8]): 14 µM
IC50 [9]: 21 µM
SMILES: O=C(O)c1ccnc2c(O)cccc12

Further lines, the compound ahead of its results:

SMILES: NC1CC1c1cccc(OCC[C@H](NC(=O)c2ccccc2)C(=O)NCc2ccccc2)c1 (some centres not stated)
Ki [1]: 230 µM
Ki [2]: 740 µM

SMILES: O=C(O)CC[C@H](O)C(=O)O
IC50 [3]: 48 µM

SMILES: O=C(O)CC[C@@H](O)C(=O)O
IC50 [3]: 106 µM

SMILES: NC1CC1c1ccc(NC(=O)C(Cc2ccccc2)NC(=O)OCc2ccccc2)cc1 (configuration not stated)
Ki [2]: > 133 µM

SMILES: NC1CC1c1cc(F)cc(F)c1OCc1ccccc1 (configuration not stated)
Ki [1]: 110 µM
Ki [2]: 17 µM

SMILES: N[C@@H]1C[C@H]1c1ccc(OCC[C@H](NC(=O)c2ccccc2)C(=O)NCc2ccccc2)cc1
Ki [1]: 250 µM
Ki [2]: 1700 µM

SMILES: S=C(SSC(=S)N1CCCC1)N1CCCC1 [BIS(PYRROLIDINYLTHIOCARBONYL)DISULFIDE]
IC50 [6]: 3.3 µM
